The values below are quoted from earlier work in patent publication US20190046468A1 (SUN PHARMACEUTICAL INDUSTRIES LIMITED, priority 2017, published 2019).

Structures are written as SMILES.

The conditions of data set [1]: in vivo.
For data set [2] the following is noted: aqueous media and many other solvents including acetone.

Consider `COc1ccccc1OCC(O)CO` (centres unmarked) [Guaifenesin], for which, in data set [1], the plasma half-life entry was “about 1 hour”. Further, the solubility result in data set [2] was “freely soluble”.
